Data from patent US10500207B2, “Compounds for the treatment of diseases associated with amyloid or amyloid-like proteins” (AC Immune SA, priority 2010, dated 2019).

Biological target: Aβ1-42 peptide (Homo sapiens, UniProt P05067)
Assay: Thioflavin T spectrofluorescence assay (ThT-assay): inhibition of Aβ1-42 aggregation (% inhibition at 330 μM; IC50 from dilution series)
Settings: for inhibition at 330 µM: 24 h, read-out: Inhibition at 330 μM [%], ThT assay; for inhibition at 330 µM / Inhibition at 330 μM [%]: 330 μM small molecule, 33 μM Aβ1-42 (10:1), 24 hrs at 37° C., mean ± standard deviation of two independent experiments; for IC50 / Inhibition at 330 μM [%]: ThT assay; for IC50: dilution series 330 μM to 0.08 μM
Experimental: Aβ1-42 lyophilized powder (Bachem) was reconstituted in hexafluoroisopropanol (HFIP) to 1 mM. The peptide solution was sonicated for 15 min at room temperature, agitated overnight, and aliquots were made into non-siliconized microcentrifuge tubes. The HFIP was then evaporated under a stream of argon. The resulting peptide film was dried under vacuum for 10 min, tightly sealed and stored at −80° C. until used.
A positive control without a small molecule was prepared to measure maximum RFU. A negative control without Aβ1-42 was prepared for each small molecule. […] The solutions were then incubated for 24 hrs at 37° C., and the spectrofluorescence (relative fluorescence units; RFU) were read in six replicates in black 384-well assay plates (Perkin-Elmer) on a Perkin-Elmer FluoroCount spectrofluorometer. The inhibition of aggregation is expressed as mean % inhibition±1 standard deviation (SD) according to the following equation:
Racemic compounds and their enantiomers were tested for their ability to inhibit amyloid peptide aggregation using the ThT assay. To determine the IC50, the following dilutions of the compounds were used in the ThT assay described above:

Aβ1-42 peptide, sequence (P05067 672-713 limits assumed): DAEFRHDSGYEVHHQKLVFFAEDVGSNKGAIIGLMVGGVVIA

CNC1CCc2c(c3ccc(Nc4ccc(F)c(F)c4)nc3n2C)C1 (racemic) [Example 26, N^2-(3,4-difluorophenyl)-N^8,9-dimethyl-6,7,8,9-tetrahydro-5H-pyrido[2,3-b]indole-2,6-diamine hydrogenchloride]
inhibition at 330 µM: 93.4 ± 3.9%
IC50 (IC50 μM 1st assay, 1st assay): 12.2 µM
IC50 (IC50 μM 2nd assay, 2nd assay): 16.8 µM

CNC1CCc2c(c3ccc(Nc4ccc(N5CCOCC5)cc4)nc3n2C)C1 (racemic) [Example 42]
inhibition at 330 µM: 96.2 ± 2.8%
IC50 (IC50 μM 1st assay, 1st assay): 63 µM
IC50 (IC50 μM 2nd assay, 2nd assay): 112 µM

CNC1CCc2c(c3ccc(Nc4ccc5c(c4)OCCO5)nc3n2C)C1 (racemic) [Example 156]
inhibition at 330 µM: 85.1 ± 0.8%
IC50 (IC50 μM 1st assay, 1st assay): 39.7 µM
IC50 (IC50 μM 2nd assay, 2nd assay): 26.7 µM

CNC1CCc2c(c3ccc(Nc4ccc(F)c(F)c4)nc3n2C)C1 (single isomer, unassigned) [Example 214a]
IC50 (IC50 μM 1st assay, 1st assay): 35.4 µM
IC50 (IC50 μM 2nd assay, 2nd assay): 33.5 µM

CNC1CCc2c(c3ccc(Nc4ccc(F)c(F)c4)nc3n2C)C1 (single isomer, unassigned) [Example 214b]
IC50 (IC50 μM 1st assay, 1st assay): 13.4 µM
IC50 (IC50 μM 2nd assay, 2nd assay): 7.7 µM

CNC1CCc2c(c3ccc(Nc4ccc(N5CCOCC5)cc4)nc3n2C)C1 (single isomer, unassigned) [Example 216a]
IC50 (IC50 μM 1st assay, 1st assay): 99.3 µM
IC50 (IC50 μM 2nd assay, 2nd assay): 54.9 µM

CNC1CCc2c(c3ccc(Nc4ccc(N5CCOCC5)cc4)nc3n2C)C1 (single isomer, unassigned) [Example 216b]
IC50 (IC50 μM 1st assay, 1st assay): 45 µM
IC50 (IC50 μM 2nd assay, 2nd assay): 34.5 µM

CNC1CCc2c(c3ccc(Nc4ccc5c(c4)OCCO5)nc3n2C)C1 (single isomer, unassigned) [Example 217a]
IC50 (IC50 μM 1st assay, 1st assay): 28 µM
IC50 (IC50 μM 2nd assay, 2nd assay): 23.6 µM

CNC1CCc2c(c3ccc(Nc4ccc5c(c4)OCCO5)nc3n2C)C1 (single isomer, unassigned) [Example 217b]
IC50 (IC50 μM 1st assay, 1st assay): 6.6 µM
IC50 (IC50 μM 2nd assay, 2nd assay): 5.9 µM

c1ccc(CCNc2ccc3cc[nH]c3n2)nc1 [Example 1]
inhibition at 330 µM: 69.5 ± 4.5%

c1ccc(CNc2ccc3cc[nH]c3n2)nc1 [Example 2]
inhibition at 330 µM: 47.4 ± 8.9%

Fc1ccc(Nc2ccc3cc[nH]c3n2)cc1F [Example 3]
inhibition at 330 µM: 56.6 ± 23%

FC(F)(F)c1ccc(Nc2ccc3cc[nH]c3n2)cn1 [Example 4]
inhibition at 330 µM: 53.5 ± 0.4%

CN(C)C(=O)c1ccc(Nc2ccc3cc[nH]c3n2)cc1 [Example 5]
Inhibition at 330 μM [%]: no inhibition

Fc1cc(F)cc(Nc2ccc3cc[nH]c3n2)c1 [Example 6]
inhibition at 330 µM: 60.1 ± 3.5%

CN(C)C(=O)c1cccc(Nc2ccc3cc[nH]c3n2)c1 [Example 7]
Inhibition at 330 μM [%]: no inhibition

c1cc2ccc(Nc3ccc4cc[nH]c4n3)nc2[nH]1 [Example 8]
inhibition at 330 µM: 74.7 ± 6.8%

c1ccc(Nc2ccc3cc[nH]c3n2)nc1 [Example 9]
inhibition at 330 µM: 70.8 ± 9.2%

Fc1ccc(Nc2ccc3cc[nH]c3n2)cc1 [Example 10]
inhibition at 330 µM: 62.7 ± 4%

c1cc2cc(Nc3ccc4cc[nH]c4n3)cnc2[nH]1 [Example 11]
inhibition at 330 µM: 86.2 ± 8.6%

c1cc2ccc(Nc3ccc4cc[nH]c4n3)cc2[nH]1 [Example 12]
inhibition at 330 µM: 75.3 ± 14.5%

c1cc2ncc(Nc3ccc4cc[nH]c4n3)cc2[nH]1 [Example 13]
inhibition at 330 µM: 97.8 ± 1.8%

N#Cc1c[nH]c2nc(Nc3ccc(F)cc3)ccc12 [Example 15]
inhibition at 330 µM: 58.6 ± 9.5%

c1cc2cc(Nc3ccc4cc[nH]c4c3)ccc2[nH]1 [Example 16]
inhibition at 330 µM: 93.7 ± 2.1%

c1cc2ccc(Nc3ccc4cc[nH]c4c3)cc2[nH]1 [Example 17]
inhibition at 330 µM: 96.3%

c1cc2cc(Nc3ccc4cc[nH]c4n3)ccc2[nH]1 [Example 18]
inhibition at 330 µM: 97 ± 1.2%

CN1CCC(c2c[nH]c3cc(Nc4cccc(N5CCOCC5)c4)ccc23)CC1 [Example 20]
inhibition at 330 µM: 92.8 ± 0.1%

CN1CCC(c2c[nH]c3ccc(Nc4ccc(F)c(F)c4)cc23)CC1 [Example 21]
inhibition at 330 µM: 74 ± 2.7%

CN1CCC(c2c[nH]c3cc(Nc4ccc(F)c(F)c4)ccc23)CC1 [Example 22]
inhibition at 330 µM: 84.5 ± 6.8%

CN1CCC(c2c[nH]c3cc(N4CCc5ccccc5C4)ccc23)CC1 [Example 23]
inhibition at 330 µM: 97.8 ± 1.5%

CNC1CCc2[nH]c3nc(Nc4ccc(F)c(F)c4)ccc3c2C1 (centres unmarked) [Example 24]
inhibition at 330 µM: 77.4 ± 15.6%

CNC1CCc2[nH]c3nc(Nc4ccc(C(F)(F)F)nc4)ccc3c2C1 (centres unmarked) [Example 25]
inhibition at 330 µM: 63.4 ± 9%

CNC1CCc2[nH]c3nc(Nc4cc(F)c(F)cc4F)ccc3c2C1 (centres unmarked) [Example 27]
inhibition at 330 µM: 86.7 ± 0.8%

CNC1CCc2c(c3ccc(Nc4cc(F)c(F)cc4F)nc3n2C)C1 (centres unmarked) [Example 28]
inhibition at 330 µM: 91.4 ± 2.9%

CNC1CCc2c(c3ccc(Nc4cc(F)cc(F)c4)nc3n2C)C1 (centres unmarked) [Example 29]
inhibition at 330 µM: 85.4 ± 0.4%

CNC1CCc2c(c3ccc(Nc4cc(F)c(F)c(F)c4)nc3n2C)C1 (centres unmarked) [Example 30]
inhibition at 330 µM: 84.3 ± 3.1%

CNC1CCc2[nH]c3nc(Nc4ccc5c(C6CCNCC6)c[nH]c5c4)ccc3c2C1 (centres unmarked) [Example 31]
inhibition at 330 µM: 96.5 ± 0.6%

COC(=O)c1c[nH]c2nc(Nc3ccc4c(C5CCNCC5)c[nH]c4c3)ccc12 [Example 32]
inhibition at 330 µM: 94.7 ± 1%

N#Cc1c[nH]c2nc(Nc3cnc4c(C5CCNCC5)c[nH]c4c3)ccc12 [Example 34]
inhibition at 330 µM: 79.2 ± 16.2%

c1nc2c(C3CCNCC3)c[nH]c2cc1Nc1ccc2c3c([nH]c2n1)CCCC3 [Example 35]
inhibition at 330 µM: 97.7 ± 0.3%

c1cc2c(C3CCNCC3)c[nH]c2cc1Nc1ccc2[nH]cc(C3CCNCC3)c2c1 [Example 36]
inhibition at 330 µM: 98.2 ± 0.3%

FC1(CNc2ccc3c(C4CCNCC4)c[nH]c3n2)CCNCC1 [Example 37]
inhibition at 330 µM: 47.4 ± 5.2%

Cn1cc(C2CCNCC2)c2ccc(Nc3ccc(F)c(F)c3)cc21 [Example 38]
inhibition at 330 µM: 90.9 ± 2.7%

c1cc2c(cc1Nc1ccc3c(C4CCNCC4)c[nH]c3n1)CCC2 [Example 40]
inhibition at 330 µM: 94.8 ± 1%

c1cc2c(cc1Nc1ccc3c(C4CCNCC4)c[nH]c3c1)OCO2 [Example 41]
inhibition at 330 µM: 98 ± 0.5%

c1cc2ccc(NC3CCNCC3)nc2[nH]1 [Example 43]
inhibition at 330 µM: 48.4 ± 20.3%

c1cc2c(C3CCNCC3)c[nH]c2nc1Nc1ccc2c3c([nH]c2n1)CCCC3 [Example 44]
inhibition at 330 µM: 98.1 ± 0.3%

c1nc2[nH]cc(C3CCNCC3)c2cc1Nc1ccc2c3c([nH]c2n1)CCCC3 [Example 45]
inhibition at 330 µM: 96.5 ± 3.7%

c1cc2c(C3CCNCC3)c[nH]c2cc1Nc1ccc2c3c([nH]c2n1)CCC3 [Example 46]
inhibition at 330 µM: 99.4%

c1cc2[nH]cc(C3CCNCC3)c2cc1Nc1ccc2c3c([nH]c2n1)CCC3 [Example 47]
inhibition at 330 µM: 99.1 ± 0.5%

c1cc2c(C3CCNCC3)c[nH]c2cc1Nc1ccc2c(C3CCNCC3)c[nH]c2n1 [Example 48]
inhibition at 330 µM: 92 ± 0.8%

FC(F)(F)c1ccc(Nc2ccc3c(C4CCNCC4)c[nH]c3c2)cn1 [Example 49]
inhibition at 330 µM: 81.9 ± 0.6%

c1cc2c(C3CCNCC3)c[nH]c2nc1NCC1CCNCC1 [Example 50]
inhibition at 330 µM: 67.5 ± 0.1%

c1nc2[nH]cc(C3CCNCC3)c2cc1Nc1ccc2c3c([nH]c2n1)CCC3 [Example 51]
inhibition at 330 µM: 95.5 ± 1%

Fc1ccc(Nc2ccc3c(C4CCNCC4)c[nH]c3c2)cc1F [Example 52]
inhibition at 330 µM: 83.6 ± 2.8%

Cn1cc(C2CCNCC2)c2cc(Nc3ccc4c(C5CCNCC5)cn(C)c4c3)ccc21 [Example 53]
inhibition at 330 µM: 96 ± 2.1%

CN(c1ccc2c(c1)c(C1CCNCC1)cn2C)c1ccc2c(C3CCNCC3)cn(C)c2c1 [Example 54]
inhibition at 330 µM: 96 ± 2.7%

Fc1ccc(Nc2ccc3[nH]cc(C4CCNCC4)c3c2)cc1F [Example 55]
inhibition at 330 µM: 75.8 ± 0.8%

FC(F)(F)c1ccc(Nc2ccc3[nH]cc(C4CCNCC4)c3c2)cn1 [Example 56]
inhibition at 330 µM: 58.5 ± 2.7%
